US9624169B2, “Aryl- and heteroaryl-pyrrolidine-2-carboxamide compounds” (SciFluor Life Sciences, Inc., priority 2015, dated 2017)

System: formalin induced pain
Assay: Formalin induced pain model in rats (flinching, lifting, licking, biting and trembling of injected paw)
Details: for Effect on the flinching response (in words): at tested dose levels; for Effect on duration of paw lifting post-formalin injection (in words): all dose levels; for Effect on all testing behaviors (lifting, licking, biting and trembling) post-formalin injection (in words): all tested dose levels
[1] = Phase 1, group 4, 3 mg/ml (Table 2: 3 mg/kg P.O.)
[2] = Phase 1, group 5, 10 mg/ml (Table 2: 10 mg/kg P.O.)
[3] = Phase 1, group 6, 30 mg/ml (Table 2: 30 mg/kg P.O.)
[4] = Phase 2, group 4, 3 mg/ml (Table 2: 3 mg/kg P.O.)
[5] = Phase 2, group 5, 10 mg/ml (Table 2: 10 mg/kg P.O.)
[6] = Phase 2, group 6, 30 mg/ml (Table 2: 30 mg/kg P.O.)
[7] = phase 1, control compounds, Compound 1A at 3 mg/kg
[8] = Phase 1, group 3, 100 mg/ml (Table 2: 100 mg/kg P.O.)
[9] = Phase 2, group 3, 100 mg/ml (Table 2: 100 mg/kg P.O.)
[10] = Phase 1, group 2, 1 mg/ml (Table 2: 1 mg/kg I.P.)
[11] = Phase 2, group 2, 1 mg/ml (Table 2: 1 mg/kg I.P.)

For `NC(=O)[C@@H]1CC[C@H](c2ccc(OC(c3ccccc3F)C(F)(F)F)cc2)N1` (stereo partly drawn) [Compound 1A, (2S,5R)-5-(4-(2,2,2-trifluoro-1-(2-fluorophenyl)ethoxy)phenyl)pyrrolidine-2-carboxamide], the “Group Mean of Average Duration of Licking, Biting and Trembling” value (from here on “Group Mean … Biting and Trembling”) [1] was 34.2 ± 26.8 No. per 5 min, the “Group Mean of Average Duration of Lifting” value (“Group Mean … of Lifting” for short) [1] was 37.1 ± 43.8 No. per 5 min and the “Group Mean of Average Flinching Response” value [1] was 15.2 ± 11.3 No. per 5 min. The “Group Mean of Total Testing Behavior” value [1] was 71.3 ± 56.4 No. per 5 min, the “Group Mean … Biting and Trembling” value [2] was 21.9 ± 25.1 No. per 5 min and the “Group Mean … of Lifting” value [2] was 17.3 ± 22.8 No. per 5 min. For the same compound, the “Group Mean of Average Flinching Response” value [2] was 10.5 ± 3.7 No. per 5 min, the “Group Mean of Total Testing Behavior” value [2] was 39.2 ± 27.5 No. per 5 min and the “Group Mean … Biting and Trembling” value [3] was 17.4 ± 13.0 No. per 5 min. For the same compound, the “Group Mean … of Lifting” value [3] was 21.3 ± 25.2 No. per 5 min, the “Group Mean of Average Flinching Response” value [3] was 22.0 ± 7.7 No. per 5 min and the “Group Mean of Total Testing Behavior” value [3] was 38.7 ± 31.8 No. per 5 min. For the same compound, the “Group Mean … Biting and Trembling” value [4] was 32.6 ± 27.6 No. per 5 min, the “Group Mean … of Lifting” value [4] was 8.2 ± 10.4 No. per 5 min and the “Group Mean of Average Flinching Response” value [4] was 16.0 ± 10.2 No. per 5 min. For the same compound, the “Group Mean of Total Testing Behavior” value [4] was 40.8 ± 34.3 No. per 5 min, the “Group Mean … Biting and Trembling” value [5] was 20.7 ± 10.5 No. per 5 min and the “Group Mean … of Lifting” value [5] was 5.1 ± 6.2 No. per 5 min. The “Group Mean of Average Flinching Response” value [5] was 16.6 ± 7.3 No. per 5 min, the “Group Mean of Total Testing Behavior” value [5] was 25.8 ± 15.1 No. per 5 min and the “Group Mean … Biting and Trembling” value [6] was 22.9 ± 14.5 No. per 5 min. For the same compound, the “Group Mean … of Lifting” value [6] was 6.1 ± 6.7 No. per 5 min, the “Group Mean of Average Flinching Response” value [6] was 22.3 ± 12.5 No. per 5 min and the “Group Mean of Total Testing Behavior” value [6] was 29.0 ± 16.4 No. per 5 min. The “Effect on the flinching response (in words)” value was “no effect”, the “Effect on duration of paw lifting post-formalin injection (in words)” value (phase 1) was “no effects” and the “Effect on all testing behaviors (lifting, licking, biting and trembling) post-formalin injection (in words)” value (shortened to “Effect on all testing behaviors”) (phase 1) was “no any effects”. For the same compound, the “Effect on duration of licking, biting and trembling post-formalin injection (in words)” value (from here on “Effect on duration of licking”) [7] was “neither the control compounds (morphine and gabapentin) nor Compound 1A (at 3 mg/kg) had any effects”, the “Effect on duration of paw lifting post-formalin injection (in words)” value (phase 2) was “significant effect on inhibiting” and the “Effect on all testing behaviors” value (phase 2) was “significantly reduced”. The “Overall effect post formalin-induced pains (in words)” value (phase 2 observation period, especially at 10 mg/kg and 30 mg/kg) was “anti-nociceptive effects” and the “Activity in the formalin pain model (in words)” value (rat, in vivo) was “active”.

For `NCC1(CC(=O)O)CCCCC1` [Gabapentin, reference compound], the “Group Mean … Biting and Trembling” value [8] was 26.9 ± 14.7 No. per 5 min, the “Group Mean … of Lifting” value [8] was 39.8 ± 41.5 No. per 5 min and the “Group Mean of Average Flinching Response” value [8] was 11.5 ± 5.7 No. per 5 min. For the same compound, the “Group Mean of Total Testing Behavior” value [8] was 66.6 ± 34.8 No. per 5 min, the “Group Mean … Biting and Trembling” value [9] was 17.1 ± 9.1 No. per 5 min and the “Group Mean … of Lifting” value [9] was 20.7 ± 23.2 No. per 5 min. For the same compound, the “Group Mean of Average Flinching Response” value [9] was 16.0 ± 13.3 No. per 5 min, the “Group Mean of Total Testing Behavior” value [9] was 37.8 ± 23.7 No. per 5 min and the “Effect on the flinching response (in words)” value was “no effect”. For the same compound, the “Overall effect of control compounds on formalin induced pain model (in words)” value (control compounds) was “consistent effect of inhibiting nociceptive pain”, the “Effect on duration of paw lifting post-formalin injection (in words)” value (phase 1) was “no effects” and the “Effect on all testing behaviors” value (phase 1) was “no any effects”. The “Effect on duration of licking” value [7] was “neither the control compounds (morphine and gabapentin) nor Compound 1A (at 3 mg/kg) had any effects”, the “Effect on duration of licking” value (phase 2, 100 mg/kg) was “significantly decreased” and the “Effect on duration of paw lifting post-formalin injection (in words)” value (phase 2) was “significant effect on inhibiting”. For the same compound, the “Effect on all testing behaviors” value (phase 2) was “significantly reduced”.

For `CN1CC[C@]23c4c5ccc(O)c4O[C@H]2[C@@H](O)C=C[C@H]3[C@H]1C5` [morphine, reference compound], the “Group Mean … Biting and Trembling” value [10] was 20.5 ± 13.1 No. per 5 min, the “Group Mean … of Lifting” value [10] was 37.8 ± 27.7 No. per 5 min and the “Group Mean of Average Flinching Response” value [10] was 10.8 ± 7.7 No. per 5 min. The “Group Mean of Total Testing Behavior” value [10] was 58.3 ± 37.7 No. per 5 min, the “Group Mean … Biting and Trembling” value [11] was 12.1 ± 7.2 No. per 5 min and the “Group Mean … of Lifting” value [11] was 3.2 ± 4.4 No. per 5 min. The “Group Mean of Average Flinching Response” value [11] was 12.3 ± 6.9 No. per 5 min, the “Group Mean of Total Testing Behavior” value [11] was 15.3 ± 9.0 No. per 5 min and the “Effect on the flinching response (in words)” value was “no effect”. For the same compound, the “Overall effect of control compounds on formalin induced pain model (in words)” value (control compounds) was “consistent effect of inhibiting nociceptive pain”, the “Effect on duration of paw lifting post-formalin injection (in words)” value (phase 1) was “no effects” and the “Effect on all testing behaviors” value (phase 1) was “no any effects”. The “Effect on duration of licking” value [7] was “neither the control compounds (morphine and gabapentin) nor Compound 1A (at 3 mg/kg) had any effects”, the “Effect on duration of licking” value (phase 2, 1 mg/kg) was “significantly decreased” and the “Effect on duration of paw lifting post-formalin injection (in words)” value (phase 2) was “significant effect on inhibiting”. The “Effect on all testing behaviors” value (phase 2) was “significantly reduced”.
